# Reference: patent publication US4221730A, “3-[[(4-Aminophenyl)sulfonyl]amino]-N-[diaminophosphinyl]-benzamide” (Morton-Norwich Products, Inc., priority 1979, dated 1980)
# Key:
# Type in all cases: cell-based
# [1] = biological target: T1, urease of intact Proteus mirabilis cells (Proteus mirabilis, UniProt P17086); assay: anti-urease potency using intact Proteus mirabilis cells as the source of urease; settings: 40 minutes preincubation, pH 8.0, ammonia formed in five minutes after addition of urea; read-out: concentration evincing a 50% inhibition of the urease of intact Proteus mirabilis cells
# T1 construct: using intact Proteus mirabilis cells as the source of urease; endogenous in cells
# T1 sequence (P17086 whole entry): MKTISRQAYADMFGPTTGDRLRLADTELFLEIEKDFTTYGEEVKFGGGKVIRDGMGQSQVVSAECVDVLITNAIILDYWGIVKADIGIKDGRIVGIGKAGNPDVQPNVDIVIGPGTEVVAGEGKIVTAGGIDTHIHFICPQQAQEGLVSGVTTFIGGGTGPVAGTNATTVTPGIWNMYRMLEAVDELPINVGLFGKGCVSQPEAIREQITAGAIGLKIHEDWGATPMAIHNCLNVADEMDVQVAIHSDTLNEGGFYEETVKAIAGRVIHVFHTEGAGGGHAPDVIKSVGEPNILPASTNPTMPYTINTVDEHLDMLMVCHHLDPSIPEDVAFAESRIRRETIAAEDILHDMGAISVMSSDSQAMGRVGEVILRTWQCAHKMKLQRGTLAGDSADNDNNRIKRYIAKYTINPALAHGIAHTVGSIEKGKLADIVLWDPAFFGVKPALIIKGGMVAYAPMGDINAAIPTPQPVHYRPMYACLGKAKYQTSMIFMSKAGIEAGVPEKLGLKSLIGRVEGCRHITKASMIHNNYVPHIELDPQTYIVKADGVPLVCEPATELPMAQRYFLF
# Experimental: The anti-urease potency of the compound of this invention was determined using intact Proteus mirabilis cells as the source of urease. Compounds were preincubated with Proteus mirabilis cells suspended in a saline solution (0.1 molar) buffered with 0.1 molar tris(hydroxymethyl)aminomethane (pH 8.0). After 40 minutes preincubation, the remaining urease activity was determined by collecting the ammonia formed in five minutes after the addition of the substrate, urea. Ammonia assays were carried out according to the procedure of Seligson and Seligson [J. Lab. Clin. Med. 38, 324-330 (1951)]. Percent inhibition was calculated by comparing the amount of ammonia generated by cells preincubated with 3-[[(4-aminophenyl)sulfonyl]amino]-N-[diaminophosphinyl]-benzamide with the controls, in which preincubation was carried out in the absence of compound.
# Proteus mirabilis = assay: in vitro antibacterial activity; settings: commonly employed in vitro techniques
# Text: (§1) It is particularly inimical to Proteus mirabilis and Escherichia coli at levels of 1.4 to 5.5×10^-5 molar in commonly employed in vitro techniques for determining antibacterial activity.
# Escherichia coli = assay: in vitro antibacterial activity; settings: commonly employed in vitro techniques
# Text: as §1
compound,measurement,setting,value
Nc1ccc(S(=O)(=O)Nc2cccc(C(=O)NP(N)(N)=O)c2)cc1 [3-[[(4-aminophenyl)sulfonyl]amino]-N-[diaminophosphinyl]-benzamide],IC50,[1],2000 nM
same,antibacterial activity level (inimical concentration),Proteus mirabilis,1.4 to 5.5×10^-5 molar
same,antibacterial activity level (inimical concentration),Escherichia coli,1.4 to 5.5×10^-5 molar
